This note sets out measurements from ChEMBL document CHEMBL1125187, “3-Thienyl- and 3-furylaminobutyric acids. Synthesis and binding GABAB receptor studies” (J Med Chem, 1991).

The target in one assay is GABA B receptor (Rattus norvegicus, UniProt O88871+Q9Z0U4). Put plainly: Inhibition of [3H]baclofen binding to rat gamma-aminobutyric acid type B receptor. The format is protein-complex assay.
The target in assay [1] is GABA-A receptor; anion channel. Put plainly: Inhibition of [3H]muscimol binding to gamma-aminobutyric-acid A (GABA-A) receptor. Type of assay: protein-complex assay, Rattus norvegicus.

Chain of GABA B receptor (Q9Z0U4 whole entry): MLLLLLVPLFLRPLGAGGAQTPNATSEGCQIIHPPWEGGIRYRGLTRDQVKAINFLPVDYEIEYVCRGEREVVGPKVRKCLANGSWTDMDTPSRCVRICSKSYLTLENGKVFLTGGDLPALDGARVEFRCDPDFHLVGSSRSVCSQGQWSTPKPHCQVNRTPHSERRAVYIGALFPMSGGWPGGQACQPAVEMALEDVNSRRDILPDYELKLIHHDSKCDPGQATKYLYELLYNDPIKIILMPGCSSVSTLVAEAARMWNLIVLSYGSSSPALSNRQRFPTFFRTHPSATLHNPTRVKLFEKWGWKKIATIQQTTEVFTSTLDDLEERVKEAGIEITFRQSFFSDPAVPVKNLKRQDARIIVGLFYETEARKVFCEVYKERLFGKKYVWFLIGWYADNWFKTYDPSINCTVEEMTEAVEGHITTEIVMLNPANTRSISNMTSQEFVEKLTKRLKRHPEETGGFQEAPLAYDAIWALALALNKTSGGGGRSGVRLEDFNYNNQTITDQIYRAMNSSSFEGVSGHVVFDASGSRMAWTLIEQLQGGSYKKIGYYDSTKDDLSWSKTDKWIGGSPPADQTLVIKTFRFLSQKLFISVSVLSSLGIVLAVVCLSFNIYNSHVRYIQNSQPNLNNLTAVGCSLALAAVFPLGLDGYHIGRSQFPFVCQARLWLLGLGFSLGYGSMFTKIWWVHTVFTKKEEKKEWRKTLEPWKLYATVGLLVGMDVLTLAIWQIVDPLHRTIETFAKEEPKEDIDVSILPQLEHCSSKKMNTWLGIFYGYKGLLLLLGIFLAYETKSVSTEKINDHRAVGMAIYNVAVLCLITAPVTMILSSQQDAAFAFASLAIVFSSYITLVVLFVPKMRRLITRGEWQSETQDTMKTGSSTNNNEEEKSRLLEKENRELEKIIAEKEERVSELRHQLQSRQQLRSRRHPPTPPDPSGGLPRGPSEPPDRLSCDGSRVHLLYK
Chain of GABA B receptor (O88871 whole entry): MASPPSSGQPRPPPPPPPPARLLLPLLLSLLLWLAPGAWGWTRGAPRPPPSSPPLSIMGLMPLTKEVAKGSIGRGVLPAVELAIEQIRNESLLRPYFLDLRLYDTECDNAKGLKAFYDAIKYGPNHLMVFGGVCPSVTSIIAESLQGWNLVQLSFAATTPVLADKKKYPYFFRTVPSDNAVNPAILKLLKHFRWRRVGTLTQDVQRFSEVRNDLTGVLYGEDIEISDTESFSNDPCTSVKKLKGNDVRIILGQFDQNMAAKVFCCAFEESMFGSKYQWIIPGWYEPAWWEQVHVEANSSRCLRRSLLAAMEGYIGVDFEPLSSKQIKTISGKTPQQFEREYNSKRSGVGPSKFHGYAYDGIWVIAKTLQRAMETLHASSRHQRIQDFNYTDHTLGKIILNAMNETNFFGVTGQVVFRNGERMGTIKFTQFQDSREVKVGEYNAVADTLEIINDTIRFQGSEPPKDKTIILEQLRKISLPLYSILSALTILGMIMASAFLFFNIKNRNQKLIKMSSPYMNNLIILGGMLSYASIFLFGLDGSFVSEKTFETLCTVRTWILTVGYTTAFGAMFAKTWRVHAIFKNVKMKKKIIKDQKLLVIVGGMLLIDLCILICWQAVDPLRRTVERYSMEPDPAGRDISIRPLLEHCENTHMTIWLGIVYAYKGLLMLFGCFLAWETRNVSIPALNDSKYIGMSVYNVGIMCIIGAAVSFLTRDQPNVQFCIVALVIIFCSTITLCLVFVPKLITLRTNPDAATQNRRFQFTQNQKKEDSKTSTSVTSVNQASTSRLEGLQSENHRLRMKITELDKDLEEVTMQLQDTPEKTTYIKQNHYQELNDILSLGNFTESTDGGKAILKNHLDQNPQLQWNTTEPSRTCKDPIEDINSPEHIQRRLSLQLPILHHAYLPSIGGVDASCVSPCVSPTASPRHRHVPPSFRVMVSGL

For orientation: IC50 means the concentration that gives 50% inhibition. A high value points to lower potency. Consider `NC[C@H](CC(=O)O)c1ccc(F)cc1`, for which the 50% inhibitory concentration (IC50) on GABA B receptor was 1.33 µM.
For `Cc1ccsc1C(CN)CC(=O)O` (centres undefined), the IC50 at GABA B receptor was 124 µM; in assay [1], greater than 100 µM.
Consider `NCC(CC(=O)O)c1ccc(Br)s1` (centres undefined), for which the IC50 is 1.86 µM on GABA B receptor and greater than 100 µM in assay [1].
`NCC(CC(=O)O)c1ccc(O)cc1` (centres undefined) came in with an IC50 on GABA B receptor greater than 100 µM.
On to `NCC(CC(=O)O)c1cccs1` (centres undefined), for which the values for the IC50 (on GABA B receptor; in assay [1]) were 9.72 µM and greater than 100 µM, respectively.
`NCC(CC(=O)O)c1cccc(Cl)c1` (centres undefined) returned an IC50 on GABA B receptor of 20 µM.
As to `NCC(CC(=O)O)c1cc(Br)cs1` (centres undefined), the concentration for half-maximal inhibition (IC50) was 39.1 µM at GABA B receptor and greater than 100 µM in assay [1].
On the same counts, the results for `Cc1ccc(C(CN)CC(=O)O)o1` (centres undefined) are greater than 100 µM and greater than 100 µM.
`NCC(CC(=O)O)c1ccccc1Cl` (centres undefined) returned a half-inhibitory concentration (IC50) at GABA B receptor of 0.8 µM. This counts as sub-micromolar.
Consider `NCC(CC(=O)O)c1ccco1` (centres undefined), for which the IC50 (at GABA B receptor; in assay [1]) was greater than 100 µM in each case.
In the case of `NCC(CC(=O)O)c1cc(Cl)cs1` (centres undefined), the figures for the IC50 (on GABA B receptor; in assay [1]) were 45.3 µM and greater than 100 µM, respectively.
On the same counts, the results for `Cc1ccc(C(CN)CC(=O)O)s1` (centres undefined) are 1.34 µM and greater than 100 µM.
The matching figures for `NCC(CC(=O)O)c1ccsc1` (centres undefined): 20.9 µM and greater than 100 µM.
As to `NCC(CC(=O)O)c1ccc(Cl)s1` (centres undefined) [4-AMINO-3- (5-CHLOROTHIEN-2-YL)BUTANOIC ACID], the figures for the IC50 (on GABA B receptor; in assay [1]) were 0.61 µM and greater than 100 µM, respectively.
